{
  "source": "patent US11052092B2",
  "about": "“N-{[2-(piperidin-1-yl)phenyl](phenyl)methyl}-2-(3-oxo-3,4-dihydro-2H-1,4-benzoxazin-7-yl)acetamide derivatives and related compounds as ROR-gamma modulators for treating autoimmune diseases” (Genfit, priority 2017, dated 2021)",
  "key": {"[1]": {"test_system": "MPO activity", "assay": "MPO activity in ear skin homogenates of the IMQ induced psoriasis study", "format": "in vivo, C57BL/6 female mice", "details": "30 mpk oral, in comparison with IMQ-vehicle group", "procedure": "(§1) 8-10 weeks C57BL/6 female mice received a daily topical dose of 62.5 mg/mouse IMQ cream (Aldara® cream 5%; 3M pharmaceuticals, Sweden) on the shaved back and the right ear for 7 consecutive days. Control mice were treated similarly with a control vehicle cream (Vaseline). Test compound (Cpd 24) was orally administered daily from day 0 to day 7 at 3 mg/mL (30 mg/kg). Test compound was given 8 hours before IMQ application. Mice were killed at day 7, 4 h after the last test compound treatment to analyse skin inflammation parameters.\nEar skin tissue were homogenized in PBS containing a protease inhibitor cocktail (P8340, Sigma-Aldrich) by Ultra Turrax, centrifuged and the supernatant was discarded. The pellet was resuspended in 0.5 mL PBS containing 0.5% hexadecyltrimethyl ammonium bromide (HTAB) and 5 mM ethylene-diamine tetra-acetic acid (EDTA). Following centrifugation, 100 μL of supernatants were placed in test tubes with 200 μL PBS-HTAB-EDTA, 1 mL Hanks' balanced salt solution (HBSS), 100 μL of o-dianisidine dihydrochloride (1.25 mg/mL), and 100 μL H2O2 0.05%. […] The MPO activity was determined as absorbance at 460 nm in comparison with medium.\n(§2) Statistical evaluation of differences between the experimental groups was determined by using two-way Anova followed by a Bonferroni post test. *** p<0.001, IMQ-Vehicle compared with treatment."}, "[2]": {"test_system": "IMQ induced psoriasis in mice", "assay": "Imiquimod (IMQ) induced psoriasis study, cumulative clinical score", "format": "in vivo, C57BL/6 female mice", "procedure": "as §1\nThe severity of inflammation of the back skin was determined using the following criteria. An objective scoring system was developed based on the clinical Psoriasis Area and Severity Index (PASI), except that for the mouse model the affected skin area is not taken into account in the overall score. Erythema, scaling, and thickening were scored independently on a scale from 0 to 4: 0: none; 1: slight; 2: moderate; 3: marked; 4: severe. The cumulative score (erythema plus scaling plus thickening) served as a measure of the severity of inflammation (scale 0-12).\nas §2"}, "[3]": {"target": "T1, RORγt ligand-binding domain (RORγt-LBD) (Homo sapiens, UniProt P51449)", "T1 construct": "20 nM recombinantly expressed RORγ-LBD fused to GST", "T1 sequence (P51449 269-508 limits assumed)": "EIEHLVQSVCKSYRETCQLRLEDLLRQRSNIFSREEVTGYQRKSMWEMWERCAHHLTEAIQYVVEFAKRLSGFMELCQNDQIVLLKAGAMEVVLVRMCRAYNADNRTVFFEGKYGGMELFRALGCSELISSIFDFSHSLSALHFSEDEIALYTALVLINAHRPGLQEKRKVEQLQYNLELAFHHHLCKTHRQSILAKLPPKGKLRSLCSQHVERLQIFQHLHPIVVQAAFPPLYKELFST", "assay": "Time-resolved FRET (TR-FRET) RORγt coactivator assay", "details": "GST-RORγ-LBD, biotinylated RIP140 peptide, 2 hours at room temperature", "how_it_was_run": "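GST-tagged RORγt-LBD (20 nM) with 30 nM biotinylated RIP140-derived peptide, streptavidin-terbium and d2 anti-GST in CHAPS buffer (1 mM DTT, 2 mM EDTA, 0.1% BSA), 1% DMSO. Compounds at 0.3 nM–30 μM final, equilibrated 2 h, room temperature, dark. Coactivator displacement lowers the TR-FRET signal; IC50 (μM) and Emax (%) reported.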"}},
  "data": [
    {"smiles": "Cc1ccc(C(NC(=O)Cc2ccc3c(c2)CC(=O)N3)c2ccc(C)o2)c(N2CCCCC2)c1", "note": "(stereo not shown) [Cpd. 24, N-{[4-methyl-2-(piperidin-1-yl)phenyl](5-methylfuran-2-yl)methyl}-2-(2-oxo-2,3-dihydro-1H-indol-5-yl)acetamide]", "values": [
      {"measurement": "MPO activity in ear homogenates", "setting": "[1]", "result": "reduced MPO activity"},
      {"measurement": "adverse effect", "setting": "[2]; after test compound administration, 30 mg/kg orally daily day 0 to day 7", "result": "no adverse effect was observed"},
      {"measurement": "cumulative score (erythema plus scaling plus thickening)", "setting": "[2]; orally 30 mpk, day 5, compared to control treatment", "result": "significant decrease"},
      {"measurement": "IC50", "setting": "[3]", "result": "< 10", "unit": "nM"}
    ]}
  ]
}
